Literature values as cited in patent US20080269334A1, “Highly Concentrated Pourable Aqueous Solutions Of Potassium Ibuprofen, Their Preparation And Their Use” (ALBEMARLE CORPORATION, priority 2005, published 2008).

Compound	concentration of dissolved potassium ibuprofen (U.S. Pat. No. 5,912,011 Table 1, system with 35.2 wt % ibuprofen, 33.3 wt % PEG 600, 7.3 wt % water)	maximum concentration of dissolved potassium ibuprofen shown (U.S. Pat. No. 6,387,400, polyethylene glycol solvent, less than about 50 mole % of ibuprofen converted to the potassium salt)	solubility of ibuprofen in a solvent system (402 mg ibuprofen, 100 mg PEG 600, 3.3 wt % glycerin or propylene glycol, 6.4 wt % water, 38.4 mg KOH, U.S. Pat. Nos. 5,071,643 and 5,360,615)
CC(C)Cc1ccc(C(C)C(=O)[O-])cc1.[K+] (stereo not drawn) [potassium ibuprofen, potassium 2-(4-isobutylphenyl)propionate]	24.2 wt %	about 24.2 wt %	–
CC(C)Cc1ccc(C(C)C(=O)O)cc1 (stereo not drawn) [ibuprofen]	–	–	67%
